Results on nine molecules are retold here after patent US20260258016A1, “SUBSTITUTED PYRIDAZINE-3-CARBOXAMIDE COMPOUND SERVING AS TYK2 INHIBITOR” (Guangzhou Fermion Technology Co., Ltd., priority 2022, published 2026).

One assay concerns the target T1, JAK2 JH1 (Homo sapiens, UniProt O60674).
T1 construct: 5 μL/well of 2×JAK1 JH1/JAK2 JH1/JAK3 JH1/TYK2 JH1 kinase solutions
As to the kind of experiment: JAK2 JH1 kinase inhibition (HTRF). Type of assay: biochemical. The note with it: read-out: Inhibition on kinase activity (IC50, μM) JAK2 JHI. The procedure:
(§1) After the completion of incubation, 5 μL of a mixed solution containing a 2×TK-SUB-biotin substrate and ATP was added to each well, uniformly mixed by centrifugation, and incubated at 25° C. for 45 minutes (JAK1/JAK2) or 60 minutes (JAK3/TYK2). After completion of incubation, 10 μL of an assay mixture (TK Antibody-EU and Streptavidin-XL mixture) was added to each well, uniformly mixed by centrifugation, and incubated at 25° C. for 60 minutes (JAK1/JAK2) or 120 minutes (JAK3/TYK2). After completion of incubation, the solutions were transferred to a 4° C. freezer for incubation overnight, and fluorescence values were read on an Envision 2104 Multilabel Reader, and the IC50 of the compound was calculated using XL-Fit software.
Background: TR-FRET usually uses a lanthanide donor and a delayed reading to cut background.

Another assay concerns the target TYK2 JH2 pseudokinase (Homo sapiens, UniProt P29597). Kind of assay: In vitro TYK2 JH2 enzyme binding assay (TR-FRET).
The next assay has as its target T2, JAK1 JH1 (Homo sapiens, UniProt P23458).
T2 construct: 5 μL/well of 2×JAK1 JH1/JAK2 JH1/JAK3 JH1/TYK2 JH1 kinase solutions
As to the kind of experiment: JAK1 JH1 kinase inhibition (HTRF). It is filed as biochemical. The note with it: read-out: Inhibition on kinase activity (IC50, μM) JAKI JHI.

A further assay addresses T3, TYK2 JH1 (Homo sapiens, UniProt P29597).
T3 construct: 5 μL/well of 2×JAK1 JH1/JAK2 JH1/JAK3 JH1/TYK2 JH1 kinase solutions
T3 sequence (P29597 897-1176 limits assumed): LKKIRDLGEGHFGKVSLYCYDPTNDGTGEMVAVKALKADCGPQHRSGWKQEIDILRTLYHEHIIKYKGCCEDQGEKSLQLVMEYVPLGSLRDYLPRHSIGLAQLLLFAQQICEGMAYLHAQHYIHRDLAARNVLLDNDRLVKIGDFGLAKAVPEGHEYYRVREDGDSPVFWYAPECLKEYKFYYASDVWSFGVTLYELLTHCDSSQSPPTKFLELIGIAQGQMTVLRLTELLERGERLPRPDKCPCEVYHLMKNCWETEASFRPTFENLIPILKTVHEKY
As to the kind of experiment: TYK2 JH1 kinase inhibition (HTRF). It is filed as biochemical. The note with it: read-out: Inhibition on kinase activity (IC50, μM) TYK2 JHI. The procedure: as §1

The subject of assay [1] is IL-2-induced STAT5 phosphorylation (JAK1/3) in CD3+ cells of human PBMC. Kind of assay: IL-2-induced STAT5 phosphorylation (JAK1/3) in CD3+ cell subpopulations in human PBMC, flow cytometry. It is filed as cell-based. Particulars: IL-2 stimulation 20 min, read-out: IL-2-induced CD3+ pSTAT5 (JAK1/3) in hPBMC (IC50). The procedure:
Purpose: The purpose of this test case was to test the inhibitory effect of the compound on IL-2-induced STAT5 phosphorylation using protein phosphorylation flow cytometric analysis technology.
Human PBMC cells were pre-incubated with the compounds, STAT5 was induced to phosphorylate under appropriate stimulation conditions, and corresponding cell subpopulations and targets were stained. Flow cytometry was used to read cell data and analyze the strength of phosphorylated antibody signals under different compound concentrations. PBMCs were resuspended and dispensed into a 96-well plate, 62.5 μL/well. 3.5 μL of 20× compound working solutions were added and incubated at 37° C. for 30 minutes. 5 μL of PE mouse anti-human CD3 (BD) was added and incubated for 30 min at 37° C. in the dark. 4 μL of 20×IL-2 (R&D) was added to each well and incubated at 37° C. in the dark for 20 minutes. All cells in the 96-well plate were transferred to a deep-well plate, 400 μL of a fixation working solution (Biolegend) was added to each well, and incubated at room temperature in the dark for 20 minutes. The cells were washed twice with PBS, and 400 μL of Perm Buffer III (BD) was added and incubated at 4° C. in the dark for 40 minutes. The cells were washed twice with PBS, and 100 μL of a STAT5 pY694 antibody working solution (BD) was added and incubated at room temperature for 40 minutes. After washing once with PBS, the cells were resuspended in 200 μL of a staining buffer and transferred to a sample plate. The antibody fluorescence intensity was analyzed using FlowJo software, and the IC50 of the compound was calculated using XL-Fit software.

For another assay, the target named is T4, JAK3 JH1 (Homo sapiens, UniProt P52333).
T4 construct: 5 μL/well of 2×JAK1 JH1/JAK2 JH1/JAK3 JH1/TYK2 JH1 kinase solutions
As to the kind of experiment: JAK3 JH1 kinase inhibition (HTRF). Type of assay: biochemical. Particulars: read-out: Inhibition on kinase activity (IC50, μM) JAK3 JHI. How it is done: as §1

Read-outs that look alike come from different tables or passages of the source.

Sequence of TYK2 JH2 pseudokinase (P29597 589-875 limits assumed): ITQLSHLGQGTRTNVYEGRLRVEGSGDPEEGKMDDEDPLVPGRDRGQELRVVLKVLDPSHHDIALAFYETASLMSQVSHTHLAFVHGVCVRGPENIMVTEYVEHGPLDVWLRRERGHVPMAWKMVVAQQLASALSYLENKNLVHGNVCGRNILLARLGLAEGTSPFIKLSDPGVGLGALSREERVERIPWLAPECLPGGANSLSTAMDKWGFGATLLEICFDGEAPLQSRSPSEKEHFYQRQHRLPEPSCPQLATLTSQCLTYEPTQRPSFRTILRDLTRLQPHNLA
T4 sequence (P52333 822-1111 limits assumed): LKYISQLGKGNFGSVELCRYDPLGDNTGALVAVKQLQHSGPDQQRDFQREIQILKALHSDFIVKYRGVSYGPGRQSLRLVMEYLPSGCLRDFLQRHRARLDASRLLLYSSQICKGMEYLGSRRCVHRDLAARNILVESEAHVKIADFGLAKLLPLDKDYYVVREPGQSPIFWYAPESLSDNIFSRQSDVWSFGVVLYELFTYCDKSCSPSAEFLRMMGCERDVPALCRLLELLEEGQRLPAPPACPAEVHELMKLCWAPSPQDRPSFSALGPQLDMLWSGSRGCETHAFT
T2 sequence (P23458 875-1153 limits assumed): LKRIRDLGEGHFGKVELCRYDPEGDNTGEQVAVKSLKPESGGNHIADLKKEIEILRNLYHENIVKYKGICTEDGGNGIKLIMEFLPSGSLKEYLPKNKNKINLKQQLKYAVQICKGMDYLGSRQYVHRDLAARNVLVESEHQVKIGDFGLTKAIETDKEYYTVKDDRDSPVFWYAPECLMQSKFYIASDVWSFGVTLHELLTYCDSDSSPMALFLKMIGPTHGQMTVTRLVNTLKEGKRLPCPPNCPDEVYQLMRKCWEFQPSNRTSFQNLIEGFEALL
T1 sequence (O60674 849-1124 limits assumed): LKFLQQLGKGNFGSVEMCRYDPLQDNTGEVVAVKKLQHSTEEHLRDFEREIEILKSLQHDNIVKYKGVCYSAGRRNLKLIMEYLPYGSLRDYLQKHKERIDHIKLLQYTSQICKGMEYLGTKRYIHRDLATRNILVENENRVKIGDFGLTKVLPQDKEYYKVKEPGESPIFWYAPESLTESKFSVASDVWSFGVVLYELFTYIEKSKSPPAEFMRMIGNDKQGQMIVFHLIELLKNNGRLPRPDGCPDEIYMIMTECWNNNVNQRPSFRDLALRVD
Procedure for JAK1 JH1: Purpose: The purpose of this test example was to examine the inhibitory effect of the compound on the kinase activity of JAK1 JH1/JAK2 JH1/JAK3 JH1/TYK2 JH1 using homogeneous time-resolved fluorescence resonance energy transfer (HTRF) technology.
100 nL/well of compound working solutions were transferred to a 384-well assay plate using an automated micropipetting system, 5 μL/well of 2×JAK1 JH1/JAK2 JH1/JAK3 JH1/TYK2 JH1 kinase solutions or assay buffer were added, uniformly mixed by centrifugation, and incubated at the room temperature 25° C. for 15 minutes. After the completion of incubation, 5 μL of a mixed solution containing a 2×TK-SUB-biotin substrate and ATP was added to each well, uniformly mixed by centrifugation, and incubated at 25° C. for 45 minutes (JAK1/JAK2) or 60 minutes (JAK3/TYK2). After completion of incubation, 10 μL of an assay mixture (TK Antibody-EU and Streptavidin-XL mixture) was added to each well, uniformly mixed by centrifugation, and incubated at 25° C. for 60 minutes (JAK1/JAK2) or 120 minutes (JAK3/TYK2).
Procedure for TYK2 JH2 pseudokinase: Purpose: The purpose of this test example was to use a fluorescence resonance energy transfer (TR-FRET) method to test the binding effect of the compound on a TYK2 JH2 pseudokinase, and then evaluate the affinity of the compound for TYK2 JH2.
DMSO-dissolved compounds were used to prepare 10 mM stock solutions, then 200× compounds having different gradient concentrations were prepared in a compound dilution plate, and transferred to an Echo plate. 75 nL of the compounds were transferred from the Echo plate to a 384-well assay plate using an Echo instrument, and 5 μL of 3×TYK2 JH2 pseudokinase (Bioduro), 5 μL of 3×Tb antibody (Cisbio) and 5 μL of 3×TRACER (Bioduro) were added to the 384-well assay plate, centrifuged for 30 seconds, and incubated at room temperature for 60 minutes.

As for `CCONC(=O)c1nnc(NC(=O)C2CC2)cc1Nc1cccc(-c2nc[nH]n2)c1OC` [Compound 1, 6-(Cyclopropylcarboxamido)-N-ethoxy-4-((2-methoxy-3-(1H-1,2,4-triazol-3-yl)phenyl)amino)pyridazine-3-carboxamide], the IC50 was greater than 10 µM on JAK2 JH1; 0.21 nM on TYK2 JH2 pseudokinase; greater than 10 µM at JAK1 JH1; greater than 10 µM at TYK2 JH1; greater than 30000 nM in assay [1] (20 min); greater than 10 µM at JAK3 JH1.
Regarding `CCONC(=O)c1nnc(NC(=O)C2CC2)cc1Nc1cccc(-c2ncn(CCOC)n2)c1OC` [Compound 2, 6-(Cyclopropylcarboxamido)-N-ethoxy-4-((2-methoxy-3-(1-(2-methoxyethyl)-1H-1,2,4-triazol-3-yl)phenyl)amino)pyridazine-3-carboxamide], the IC50 was greater than 10 µM on JAK2 JH1; 0.19 nM at TYK2 JH2 pseudokinase; greater than 10 µM at JAK1 JH1; greater than 10 µM on TYK2 JH1; greater than 30000 nM in assay [1] (20 min); greater than 10 µM on JAK3 JH1.
On TYK2 JH2 pseudokinase, `CCONC(=O)c1nnc(NC(=O)C2CC2)cc1Nc1cccc(-c2ncn(CCF)n2)c1OC` [Compound 4, 6-(Cyclopropylcarboxamido)-N-ethoxy-4-((3-(1-(2-fluoroethyl)-1H-1,2,4-triazol-3-yl)-2-methoxyphenyl)amino)pyridazine-3-carboxamide] came in with an IC50 of 0.18 nM.
The same measure, in the same setting: in the case of `CCONC(=O)c1nnc(NC(=O)C2CC2)cc1Nc1cccc(-c2ncn(CC(F)F)n2)c1OC` [Compound 5, 6-(Cyclopropylcarboxamido)-4-((3-(1-(2,2-difluoroethyl)-1H-1,2,4-triazol-3-yl)-2-methoxyphenyl)amino)-N-ethoxypyridazine-3-carboxamide] it was 0.26 nM; in that of `CCONC(=O)c1nnc(NC(=O)C2CC2)cc1Nc1cccc(-c2ncn(CC(=O)O)n2)c1OC` [Compound 7, 2-(3-(3-((6-(Cyclopropylcarboxamido)-3-(ethoxycarbamoyl)pyridazine-4-yl)amino)-2-methoxyphenyl)-1H-1,2,4-triazol-1-yl)acetic acid], 0.29 nM.
At TYK2 JH2 pseudokinase, `CCONC(=O)c1nnc(NC(=O)C2CC2)cc1Nc1cccc(-c2ncn(CCC(=O)O)n2)c1OC` [Compound 8, 3-(3-(3-((6-(Cyclopropylcarboxamido)-3-(ethoxycarbamoyl)pyridazine-4-yl)amino)-2-methoxyphenyl)-1H-1,2,4-triazol-1-yl)propanoic acid] returned an IC50 of 0.29 nM.
Same read-out and setting: in the case of `CCONC(=O)c1nnc(NC(=O)C2CC2)cc1Nc1cccc(-c2ncn(CCCC(=O)O)n2)c1OC` [Compound 9, 4-(3-(3-((6-(Cyclopropylcarboxamido)-3-(ethoxycarbamoyl)pyridazine-4-yl)amino)-2-methoxyphenyl)-1H-1,2,4-triazol-1-yl)butanoic acid] it was 0.42 nM; in that of `CCONC(=O)c1nnc(NC(=O)C2CC2)cc1Nc1cccc(-c2ncn(CCO)n2)c1OC` [Compound 10, 6-(Cyclopropylcarboxamide)-N-ethoxy-4-((3-(1-(2-hydroxyethyl)-1H-1,2,4-triazol-3-yl)-2-methoxyphenyl)amino)pyridazine-3-carboxamide], 0.28 nM.
Turning to BMS-986165 [reference compound], the IC50 in assay [1] turned out to be 409 nM.
